Assay results taken from PMC11555678, “Improved Broad Spectrum Antifungal Drug Synergies with Cryptomycin, a Cdc50-Inspired Antifungal Peptide” (ACS Infectious Diseases, 2024).

How the values were obtained:
C. albicans SC5413 = experiment: microbe, parasite or virus in culture; type: cell-based, Candida albicans; conditions: Table S1; unit and conditions not given (MICs elsewhere in μg/mL)
Description: (§1) All microdilution assays with fungi were carried out in accordance with CLSI protocols from M27 for yeasts and M38 for filamentous fungi, respectively, unless otherwise specified.[64],[65] Briefly, 96-well plates were charged with RPMI1640 media, with operating volume in the first column, 200 μL, and half operating volume, 100 μL, in the remaining wells. Drug stock solution in DMSO was aliquoted into the first well in each row. Half of the volume in the dosed well was serially diluted 2-fold until column 11. Column 11 was used as the negative growth control, and column 12 was used as the positive growth control. ON yeast cultures in YPD were washed twice in DD-H2O, resuspended in PBS, and adjusted to 5000 cfu/mL in RPMI. The 96-well plate was inoculated with 100 μL aliquots of cell suspension per well. Plates were incubated at 37 °C for 2 days.

C. neoformans H99 [1] = experiment: microbe, parasite or virus in culture; type: cell-based, Cryptococcus neoformans; conditions: Table S1; unit and conditions not given (MICs elsewhere in μg/mL)
Description: as §1

C. neoformans cdc50Δ = experiment: microbe, parasite or virus in culture; type: cell-based, Cryptococcus neoformans; conditions: Table S1; unit and conditions not given (MICs elsewhere in μg/mL)
Description: as §1

C. glabrata 2001 = experiment: microbe, parasite or virus in culture; type: cell-based, Candida glabrata; conditions: Table S1; unit and conditions not given (MICs elsewhere in μg/mL)
Description: as §1

C. neoformans H99 [2] = type: cell-based, Cryptococcus neoformans; conditions: (FITC)KKOO in combination with AMB
Description: as §1, with “Plates were incubated at 37 °C for 2 days.” left out
To assess drug synergy, the initial media charged to the plate contained the peptide at twice the final operating concentration; the remaining processing steps were identical to the MIC experiment. Upon addition of 100 μL of inoculant, the final operating concentration was achieved. Control MIC plates were prepared alongside drug synergy plates to account for the day-to-day variability in any individual MIC. FIC index is computed using eq 1. All MIC assays and drug synergy assays were completed with two technical replicates per 96-well plate and a minimum of two biological replicates per drug combination. If a difference in MIC between the two technical replicates on the plate were observed, only the higher concentration was reported as the MIC to reduce the possibility of type 1 error (false positive) [drawing 1] 1

Substance	MIC (SAR screen peptides) (C. albicans SC5413)	MIC (SAR screen peptides) (C. neoformans H99 [1])	MIC (SAR screen peptides) (C. neoformans cdc50Δ)	MIC (SAR screen peptides) (C. glabrata 2001)	FIC index (C. neoformans H99 [2])
WGG{D-Ile}OONYA [I4i, D-Ile4 epimer of KKOO]	> 128	16	4	64	
W{Hyp}GIOONYA [G2HYP, hydroxyproline at position 2, C′ NH2]	16	8	4	16	
Myristic acid {Dap(FITC)}WGGIOONYA [(FITC)KKOO, FITC labeled version of KKOO]		> 128	128		< 0.5
WGGIOONYA [KKOO-NHMe, C′ methylamide version of KKOO]	16	8	4	16	
WGGIOO{D-Asn}YA [N7n, D-Asn7 epimer of KKOO]	> 128	32	8	> 128	
WGGIKANYA [K6A, alanine substituted peptide]			> 128	> 128	
WGGIAANYA [KKAA, alanine substituted peptide]			> 128	> 128	
WGGIOKNYA [K5O, single ornithine-substituted AW9-Ma derivative]		> 128	8	> 128	
{D-Trp}GGIOONYA [W1w, D-Trp1 epimer of KKOO]	> 128	16	4	32	
WGGIKONYA [K6O, single ornithine-substituted AW9-Ma derivative]	32	32	4	32	
WGGIOONY{D-Ala} [A9a, D-Ala9 epimer of KKOO]	> 128	> 128	4	> 128	
WGGIAKNYA [K5A, alanine substituted peptide]			> 128	> 128	
WGGIO{D-Orn}NYA [O6o, D-Orn6 epimer of KKOO]	> 128	16	4	> 128	
